Patent publication US20260356814A1, “INDOLINE DERIVATIVES AS SEROTONERGIC AGENTS USEFUL FOR THE TREATMENT OF DISORDERS RELATED THERETO” (MINDSET PHARMA INC., priority 2022, published 2026)

Columns and labels:
[1] = target: human 5-HT2A receptor (Homo sapiens, UniProt P28223); experiment: Human 5-HT2A: Radioligand binding assay ([3H]-ketanserin); settings: [3H]-ketanserin displacement, 27° C., 90 min, pH 7.4; read-out: h5-HT2A, IC50
Protocol: Exemplary compounds of Formula I were evaluated functionally using FLIPR assay for their effect on h5-HT2A receptor under agonist mode. The objective of this study was to evaluate the binding properties of exemplary compounds of Formula I on 5-hydroxytryptamine receptor 2A (5-HT2A). • Human 5-HT2A: Radioligand binding assay:
• i. The assay buffer was prepared following the table below.
• Adjust pH to 7.4 followed by […] sterile filtration • ii. 8 doses of reference and test compounds starting from 10 mM stock solution as required was prepared by 5-fold serial dilutions with 100% (v/v) DMSO. • iii. UniFilter-96 GF/B plate was pretreated: • a. 50 μl/well of 0.5% (v/v) PEI was added to UniFilter-96 […] plates. The plates were sealed and incubated at 4° C. for 3 hrs. • b. After incubation, the plates were washed 3 times with ice-cold wash buffer (50 mM Tris, pH7.4). • iv. The assay plate was prepared: • a. Cell membrane was diluted with assay buffer and 330 μl/well was added to 96 round deep well plates to reach a concentration of 20 μg/well. • b. 8 concentrations of reference or test compounds were prepared and 110 μl/well was added to 96 round deep well plates. • c. [3H]-ketanserin was diluted with assay buffer to 5 nM (5X final concentration) and 110 μl/well was added to 96 round deep well plates. • v. The plate was centrifuged at 1000 rpm for 30 secs and then agitated at 600 rpm, R.T. for 5 min. • vi. The plates were sealed and the plate incubated at 27° C. for 90 min. • vii. The incubation was stopped by vacuum filtration onto GF/B filter plates followed by 4 times washing with ice-cold wash buffer (50 mM Tris, pH7.4). • viii. The plates were dried at 37° C. for 45 min. • ix. The filter plates were sealed and 40 μl/well of scintillation cocktail was added. • x. The plate was read by using a Microbeta2 microplate counter.
(§1) • 1. For reference and test compounds, the results were expressed as % Inhibition, using the normalization equation: N=100−100×(U−C2)/(C1-C2), where U is the unknown value, C1 is the average of high controls, and C2 is the average of low controls. • 2. The IC50 was determined by fitting percentage of inhibition as a function of compound concentrations with Hill equation using XLfit.

[2] = target: T1, human 5-HT1A receptor (Homo sapiens, UniProt P08908); experiment: Human 5-HT1A: Radioligand binding assay ([3H]-8-Hydroxy-DPAT); settings: [3H]-8-Hydroxy-DPAT displacement, 27° C., 90 min, pH 7.4; read-out: h5-HT1A, IC50
T1 construct: expressed in transfected cells; host or cells: CHO (HTR1A&Ga15-CHO)
T1 sequence (P08908 1-422): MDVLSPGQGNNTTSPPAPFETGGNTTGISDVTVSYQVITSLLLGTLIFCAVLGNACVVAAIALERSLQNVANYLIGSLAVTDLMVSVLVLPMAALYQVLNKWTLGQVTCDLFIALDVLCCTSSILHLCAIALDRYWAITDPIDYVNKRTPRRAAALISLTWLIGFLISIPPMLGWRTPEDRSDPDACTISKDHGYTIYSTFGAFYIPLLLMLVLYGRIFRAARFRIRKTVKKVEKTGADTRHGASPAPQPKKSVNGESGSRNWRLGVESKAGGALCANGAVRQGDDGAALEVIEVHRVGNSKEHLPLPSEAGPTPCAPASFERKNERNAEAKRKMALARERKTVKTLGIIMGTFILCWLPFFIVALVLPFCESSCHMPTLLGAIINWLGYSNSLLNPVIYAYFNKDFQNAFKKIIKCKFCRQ
Protocol: The objective of this study was to evaluate the binding properties of test compounds on 5-hydroxytryptamine receptor 1A (5-HT1A).
• 1. The assay buffer was prepared following the table below.
• 2. 8 doses of reference and test compounds were prepared starting from 10 mM stock solution as required by 5-fold serial dilutions with 100% (v/v) DMSO. • 3. UniFilter-96 GF/B plate was pretreated: • i. 50 μl/well of 0.5% (v/v) PEI was added to UniFilter-96 GF/B plates. The plates were sealed and incubated at 4° C. for 3 hrs. • ii. After incubation, the plates were washed 3 times with ice-cold wash buffer (50 mM Tris, pH7.4). • 4. Assay plate was prepared: • i. Cell membrane was diluted with assay buffer and 100 μl/well was added to 96 round well plates to reach a concentration of 20 μg/well. • ii. 8 concentrations of reference or test compounds were prepared and 50 μl/well was added to 96 round deep well plates. • iii. [3H]-8-Hydroxy-DPAT was diluted with assay buffer to 2 nM (4X final concentration) and 50 μl/well was added to 96 round well plates. • 5. The plate was centrifuged at 1000 rpm for 30 secs and then agitated at 600 rpm, R.T. for 5 min. • 6. The plates were sealed and the plate was incubated at 27° C. for 90 min. • 7. The incubation was stopped by vacuum filtration onto GF/B filter plates followed by 4 times washing with ice-cold wash buffer (50 mM Tris, pH7.4). • 8. The plates were dried at 37° C. for 45 min. • 9. The filter plates were sealed and 40 μl/well of scintillation cocktail was added. • 10. The plate was read by using a Microbeta2 microplate counter.
as §1, with “N=100−100×(U−C2)/(C1−C2),” for “N=100−100×(U−C2)/(C1-C2),”, “[…]” for “function”

Chain of human 5-HT2A receptor (P28223 whole entry): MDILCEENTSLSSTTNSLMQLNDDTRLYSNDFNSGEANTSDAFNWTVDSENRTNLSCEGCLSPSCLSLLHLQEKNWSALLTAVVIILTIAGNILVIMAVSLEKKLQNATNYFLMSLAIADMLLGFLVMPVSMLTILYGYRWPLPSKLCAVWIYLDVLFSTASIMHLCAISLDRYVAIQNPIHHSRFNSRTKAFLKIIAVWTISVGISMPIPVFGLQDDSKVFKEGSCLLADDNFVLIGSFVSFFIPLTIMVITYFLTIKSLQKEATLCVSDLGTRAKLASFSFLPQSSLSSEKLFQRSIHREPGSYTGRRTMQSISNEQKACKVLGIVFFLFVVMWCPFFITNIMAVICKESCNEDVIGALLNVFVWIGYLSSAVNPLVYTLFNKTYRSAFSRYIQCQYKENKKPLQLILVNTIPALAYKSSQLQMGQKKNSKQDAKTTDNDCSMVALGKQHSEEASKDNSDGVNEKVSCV

SMILES	IC50 [1]	IC50 [2]
[2H]C([2H])([2H])N1CCC[C@@H]1C([2H])([2H])N1CCc2ccccc21 [(R)-I-1, (R)-1-((1-(Methyl-d3)pyrrolidin-2-yl)methyl-d2) indoline]	4.53 µM	0.444 µM
[2H]C([2H])([2H])Oc1ccc2c(c1)N(C([2H])([2H])[C@H]1CCCN1C([2H])([2H])[2H])CC2 [(R)-I-28, (R)-6-(Methoxy-d3)-1-((1-(methyl-d3)pyrrolidin-2-yl)methyl-d2) indoline]	8.48 µM	0.00504 µM
COc1cc2c(cc1OC)N(C[C@H]1CCCN1C)CC2 [(R)-I-34, (R)-5,6-dimethoxy-1-((1-methylpyrrolidin-2-yl)methyl) indoline]	> 30 µM	7.75 µM
COc1cccc2c1N(C[C@H]1CCCN1C)CC2 [(R)-I-46, (R)-7-Methoxy-1-((1-methylpyrrolidin-2-yl)methyl) indoline]	2.46 µM	0.211 µM
COc1cccc2c1CCN2C[C@H]1CCCN1C [(R)-I-47, (R)-4-Methoxy-1-((1-methylpyrrolidin-2-yl)methyl) indoline]	> 30 µM	15.3 µM
[2H]C([2H])([2H])N1CCC[C@@H]1C([2H])([2H])N1CCc2ccc(OC)cc21 [(R)-I-57, (R)-6-Methoxy-1-((1-(methyl-d3)pyrrolidin-2-yl)methyl-d2) indoline]	7.96 µM	0.01 µM
COc1ccc2c(c1)N(C[C@H]1CCCN1C)CC2 [(R)-I-58, (R)-6-Methoxy-1-((1-methylpyrrolidin-2-yl)methyl) indoline]	6.53 µM	0.013 µM
COc1ccc2c(c1)N(C[C@H]1CCCN1)CC2 [(R)-I-59, (R)-6-Methoxy-1-(pyrrolidin-2-ylmethyl) indoline]	15.3 µM	0.085 µM
[2H]C([2H])([2H])N(CCN1CCc2ccc(OC)cc21)C([2H])([2H])[2H] [Compound I-70, 2-(6-Methoxyindolin-1-yl)-N, N-bis(methyl-d3) ethan-1-amine]	25.8 µM	0.193 µM
[2H]C([2H])([2H])N(CCN1CCc2ccccc21)C([2H])([2H])[2H] [Compound I-71, 2-(Indolin-1-yl)-N,N-bis(methyl-d3) ethan-1-amine]	15 µM	1.62 µM
